Read-outs that look alike come from different tables or passages of the source.
Tests used:
[1] = system: Hh signaling pathway (Gli1 mRNA) in C3H10T1/2 cells; test: Gli1 mRNA down-regulation (qPCR) in OHC-stimulated C3H10T1/2 cells; assay type: cell-based, mouse; details: for mrna remaining at 5 µM / IC50: Mus musculus; for mrna remaining at 5 µM: C3H 10T1/2, 5 μM with OHCs 5 μM; for mrna remaining at 5 µM / Gli1 mRNA (%): 24 h, relative Gli1 mRNA levels compared to OHCs (set to 100%); for Gli1 mRNA (%): 5 μM with OHCs 5 μM; for IC50: C3H 10T1/2, mean ± SEM
Method: (§1) The VD3 analogues were initially assessed for their ability to inhibit the Hh signaling pathway by evaluating the effects on endogenous Gli1 mRNA levels at a single concentration (5 μM) co-administration of oxysterols (OHCs; 20(S)-hydroxycholesterol, 22(S)-hydroxycholesterol at 5 μM each) in C3H10T1/2 cells, an Hh-dependent mouse embryonic fibroblast (MEF) cell line. […] VD3 derivatives may retain some VDR agonistic activity, thereby compromising the selectivity of these compounds as Hh inhibitors. The selectivity profile of the analogues for Hh inhibition, compared to typical VDR activation, was assessed by measuring the ability to up-regulate Cyp24a1 mRNA levels in the same cellular system and by evaluating their binding to VDR using a fluorescence polarization-based competition assay (Table 1).
(§2) Mouse embryonic fibroblast cell line (C3H10T1/2, wild-type, VDR^−/−, SuFu^−/−), mouse keratinocyte cell line (ASZ001), and human embryonic kidney cell line (HEK293T) were purchased from China Center for Type Culture Collection (CCTCC; Wuhan, Hubei, China) and cultured under standard protocols. […] Therefore, they can be used to assess the inhibitory strength of the Hh signaling and the selectivity of the VDR signaling. VDR^−/− and SuFu^−/− C3H10T1/2 cells were used to study compounds selectivity for Hh and VDR signaling. If compounds regulate Hh signaling independently of VDR, their ability to down-regulate Gli1 mRNA expression should be abolished in SuFu^−/− C3H10T1/2 cells. […] The loss of Ptch in ASZ001 cells […], so down-regulating Gli1 reflects direct Smo inhibition by the compound. Comparing results from ASZ001 and C3H10T1/2 cells highlights the compound’s inhibition of the Hh signaling pathway.
(§3) RNA isolation in C3H10T1/2 cells was performed in 24-well plates (50,000 cells plated; TRIZOL Reagent); in ASZ001, cells were done in 35 mm dishes (300,000 cells plated; TRIZOL Reagent). cDNA synthesis was performed utilizing the SweScript All-in-One RT SuperMix Kit (Servicebio, Wuhan, China) per the manufacturer’s instructions on a BioRad S1000 Thermal Cycler (Hercules, CA, USA). qPCR (Hh signaling pathway and VDR) analysis of target genes was performed on Step OnePlus (ABI) using the Taqman Gene Expression Assays: mouse ActB (Mm00607939_s1), mouse GLI1 (Mm00494645_ml), mouse PTCH1(Mm00436026_m1), and mouse CYP24A1 (Mm00487244_ml). Relative gene expression levels were computed via the ΔΔCt method. ActinB mRNA expression levels of all samples were normalized to DMSO control ActinB mRNA levels (vehicle; set at 1.00). […] The mRNA expression levels from drug-treated samples were compared to OHCs levels (Gli1, PTCH) and DMSO control (Cyp24A1).

[2] = system: VDR signaling (Cyp24A1 mRNA) in C3H10T1/2 cells; test: Cyp24A1 mRNA up-regulation (qPCR) in C3H10T1/2 cells; assay type: cell-based, mouse; details: 24 h, relative to DMSO (set to 1.0); for fold induction at 5 µM: Mus musculus, C3H 10T1/2, 5 μM with OHCs 5 μM; for Cyp24A1 mRNA (fold up-regulation): 5 μM with OHCs 5 μM
Method: as §1, §2, §3

recombinant VDR = biological target: T1, recombinant VDR (Homo sapiens, UniProt P11473); test: VDR binding, fluorescence polarization-based competition assay (PolarScreen VDR Competitor Assay Red); details: compounds evaluated at 100 μM
T1 construct: purchased Thermo Fisher Scientific
T1 sequence (P11473 1-427): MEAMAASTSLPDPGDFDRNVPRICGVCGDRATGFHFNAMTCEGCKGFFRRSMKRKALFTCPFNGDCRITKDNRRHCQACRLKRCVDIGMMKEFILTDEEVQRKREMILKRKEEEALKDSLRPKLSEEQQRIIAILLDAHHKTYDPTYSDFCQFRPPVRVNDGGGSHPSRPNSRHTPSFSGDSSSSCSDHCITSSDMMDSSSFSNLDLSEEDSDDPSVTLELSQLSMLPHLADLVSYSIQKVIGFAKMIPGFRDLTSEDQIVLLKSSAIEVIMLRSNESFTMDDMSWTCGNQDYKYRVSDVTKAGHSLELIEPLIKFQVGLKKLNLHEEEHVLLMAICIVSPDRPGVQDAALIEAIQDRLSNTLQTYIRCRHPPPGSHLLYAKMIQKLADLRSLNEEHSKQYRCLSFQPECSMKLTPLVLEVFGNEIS
Method: as §1
VDR binding assay was performed using a PolarScreen VDR Competitor Assay Red kit (Thermo Fisher Scientific, Carlsbad, CA, USA) per the manufacturer’s instructions. Compounds were evaluated at 100 μM in 2.5% final DMSO in triplicate. Calcitriol is utilized as a positive control for VDR binding.

[3] = system: Hh signaling pathway (Ptch mRNA) in C3H10T1/2 cells; test: Ptch mRNA down-regulation (qPCR) in C3H10T1/2 cells; assay type: cell-based; details: Mus musculus
Method: (§4) RNA isolation in C3H10T1/2 cells was performed in 24-well plates (50,000 cells plated; TRIZOL Reagent); in ASZ001, cells were done in 35 mm dishes (300,000 cells plated; TRIZOL Reagent). cDNA synthesis was performed utilizing the SweScript All-in-One RT SuperMix Kit (Servicebio, Wuhan, China) per the manufacturer’s instructions on a BioRad S1000 Thermal Cycler (Hercules, CA, USA). qPCR (Hh signaling pathway and VDR) analysis of target genes was performed on Step OnePlus (ABI) using the Taqman Gene Expression Assays [18, 29]: mouse ActB (Mm00607939_s1), mouse GLI1 (Mm00494645_ml), mouse PTCH1(Mm00436026_m1), and mouse CYP24A1 (Mm00487244_ml). Relative gene expression levels were computed via the ΔΔCt method. ActinB mRNA expression levels of all samples were normalized to DMSO control ActinB mRNA levels (vehicle; set at 1.00). […] The mRNA expression levels from drug-treated samples were compared to OHCs levels (Gli1, PTCH) and DMSO control (Cyp24A1).

[4] = system: Hh signaling pathway (Gli1 mRNA) in ASZ001 cells; test: Gli1 mRNA down-regulation (qPCR) in ASZ001 cells; assay type: cell-based; details: Mus musculus
Method: Mouse embryonic fibroblast cell line (C3H10T1/2, wild-type, VDR^−/−, SuFu^−/−), mouse keratinocyte cell line (ASZ001), and human embryonic kidney cell line (HEK293T) were purchased from China Center for Type Culture Collection (CCTCC; Wuhan, Hubei, China) and cultured under standard protocols [16]. […] The loss of Ptch in ASZ001 cells prevents Smo inhibition, so down-regulating Gli1 reflects direct Smo inhibition by the compound.
as §4

[5] = system: VDR signaling (Cyp24A1 mRNA) in ASZ001 cells; test: Cyp24A1 mRNA expression (qPCR) in ASZ001 cells; assay type: cell-based; details: Mus musculus, read-out: Cyp24A1 mRNA levels relative to DMSO
Method: as §4

[6] = system: primary Ptch-CKO MB cells; test: Anti-proliferation (MTS) in primary Ptch-CKO MB cells; assay type: cell-based; details: Mus musculus, 48 h incubation, mean ± SEM
Method: Ptch-CKO MB cells, derived from a conditional Patched knockout mouse, lack Ptch-like ASZ001 cells. Consequently, the inhibitory effect of the compound on Ptch-CKO MB cells directly reflects its suppression of the canonical Hh signaling pathway. Cell viability was assessed by MTS proliferation assay kit (Promega, Madison, WI, USA) according to the manufacturer’s protocol. Culture conditions and experimental protocols to determine GI50 values in the primary murine Ptch-CKO MB cells were as previously described.

ASZ001 cells = test: Anti-proliferation (MTS) in ASZ001 cells; assay type: cell-based; details: Mus musculus, 48 h incubation, mean ± SEM
[7] = C3H 10T1/2, C3H10T1/2 cells, mean ± SEM, read-out: Ptch IC50
[8] = ASZ001 cells, mean ± SEM, read-out: Gli1 IC50
[9] = ASZ001 cells, 5 μM, 24 h, DMSO set to 1.0

SMILES	mrna remaining at 5 µM [1] [%]	fold induction at 5 µM [2]	VDR Binding (recombinant VDR) [µM]	further results
C[C@H](COCC(C)(C)O)[C@H]1CC[C@H]2[C@@H](OC(=O)c3ccc([N+](=O)[O-])cc3)CCC[C@]12C [Compound 4b]	54.6 ± 3.8	92.7 ± 15.9	>100	–
CC(C)COC[C@@H](C)[C@H]1CC[C@H]2[C@@H](O)CCC[C@]12C [Compound 2a]	36.8 ± 3.6	1.6 ± 0.3	>100	Gli1 mRNA (%) [1]: comparable to that of VD3; Cyp24A1 mRNA (fold up-regulation) [2]: weak
COc1cccc(C(=O)O[C@H]2CCC[C@]3(C)[C@@H]([C@H](C)COCC(C)(C)O)CC[C@@H]23)c1 [Compound 4d]	62.3 ± 4.8	86.8 ± 11.3	>100	–
CC(C)COC[C@@H](C)[C@H]1CC[C@H]2[C@@H](OC(=O)c3ccc([N+](=O)[O-])cc3)CCC[C@]12C [Compound 3b]	74.2 ± 4.1	24.6 ± 2.1	>100	–
CC(C)COC[C@@H](C)[C@H]1CC[C@H]2[C@@H](OC(=O)c3cc(N)cc(N)c3)CCC[C@]12C [Compound 3h]	5.6 ± 0.9	6.7 ± 0.8	>100	IC50 [1]: 3.2 ± 0.3 µM; IC50 [3, 7]: 7.8 ± 0.6 µM; IC50 [4, 8]: 4.7 ± 0.4 µM; fold induction at 5 µM [5, 9]: 5.1 ± 0.3; GI50 [6]: > 10 µM; GI50 (ASZ001 cells): > 20 µM
CC(C)COC[C@@H](C)[C@H]1CC[C@H]2[C@@H](OC(=O)c3ccc(Cl)cc3)CCC[C@]12C [Compound 3e]	23.5 ± 2.7	67.8 ± 4.8	>100	–
C[C@H](COCC(C)(C)O)[C@H]1CC[C@H]2[C@@H](OC(=O)c3ccc(O)cc3)CCC[C@]12C [Compound 4j]	4.6 ± 0.8	127 ± 20.5	>100	GI50 [6]: > 10 µM; GI50 (ASZ001 cells): > 20 µM
C=C1CC[C@H](O)C/C1=C/C=C1\CCC[C@]2(C)[C@@H]([C@H](C)CCCC(C)C)CC[C@@H]12 [VD3, Vitamin D3]	32.5 ± 0.6	8350 ± 102	>100	IC50 [1]: 4.2 ± 0.4 µM; IC50 ([3]; C3H 10T1/2, read-out: Ptch IC50): 3.3 ± 0.4 µM; IC50 ([4]; ASZ001, read-out: Gli1 IC50): 2.1 ± 0.2 µM; fold induction at 5 µM ([5]; ASZ001, 24 h): 821 ± 26.3; GI50 [6]: 6.4 ± 0.7 µM; GI50 (ASZ001 cells): 15.6 ± 1.7 µM
CC(C)COC[C@@H](C)[C@H]1CC[C@H]2[C@@H](OC(=O)c3cc([N+](=O)[O-])cc([N+](=O)[O-])c3)CCC[C@]12C [Compound 3g]	32.1 ± 2.4	9.8 ± 1.4	>100	–
C[C@H](COCC(C)(C)O)[C@H]1CC[C@H]2[C@@H](OC(=O)c3cc([N+](=O)[O-])cc([N+](=O)[O-])c3)CCC[C@]12C [Compound 4f]	30.7 ± 2.5	131 ± 19.7	>100	–
COc1ccc(C(=O)O[C@H]2CCC[C@]3(C)[C@@H]([C@H](C)COCC(C)C)CC[C@@H]23)cc1 [Compound 3c]	89.6 ± 4.3	36.7 ± 2.9	>100	–
C[C@H](COCC(C)(C)O)[C@H]1CC[C@H]2[C@@H](OC(=O)c3cccc(O)c3)CCC[C@]12C [Compound 4h]	3.8 ± 0.4	87.4 ± 13.7	>100	IC50 [1]: 2.8 ± 0.2 µM; IC50 [3, 7]: 5.7 ± 0.5 µM; IC50 [4, 8]: 4.1 ± 0.5 µM; fold induction at 5 µM [5, 9]: 60.3 ± 6.4; GI50 [6]: > 10 µM; GI50 (ASZ001 cells): > 20 µM
C[C@H](COCC(C)(C)O)[C@H]1CC[C@H]2[C@@H](OC(=O)c3ccc(Cl)cc3)CCC[C@]12C [Compound 4e]	26.1 ± 2.1	105 ± 21.4	>100	–
COc1ccc(C(=O)O[C@H]2CCC[C@]3(C)[C@@H]([C@H](C)COCC(C)(C)O)CC[C@@H]23)cc1O [Compound 4g]	2.5 ± 0.5	83.6 ± 15.6	>100	IC50 [1]: 2.1 ± 0.2 µM; IC50 [3, 7]: 3.8 ± 0.4 µM; IC50 [4, 8]: 3.7 ± 0.7 µM; fold induction at 5 µM [5, 9]: 56.8 ± 5.1; GI50 [6]: 3.4 ± 0.5 µM; GI50 (ASZ001 cells): 7.8 ± 1.1 µM
CC(C)COC[C@@H](C)[C@H]1CC[C@H]2[C@@H](OC(=O)c3cccc(O)c3)CCC[C@]12C [Compound 3i]	6.1 ± 1.1	13.8 ± 1.4	>100	IC50 [1]: 2.3 ± 0.7 µM; IC50 [3, 7]: 5.6 ± 0.6 µM; IC50 [4, 8]: 5.2 ± 0.3 µM; fold induction at 5 µM [5, 9]: 2.3 ± 0.2; GI50 [6]: 8.1 ± 1.1 µM; GI50 (ASZ001 cells): > 20 µM
C[C@H](COCC(C)(C)O)[C@H]1CC[C@H]2[C@@H](O)CCC[C@]12C [Compound 2b]	42.7 ± 3.4	76.8 ± 6.3	>100	Gli1 mRNA (%) [1]: comparable to that of VD3; Cyp24A1 mRNA (fold up-regulation) [2]: weak
COc1ccc(C(=O)O[C@H]2CCC[C@]3(C)[C@@H]([C@H](C)COCC(C)(C)O)CC[C@@H]23)cc1 [Compound 4c]	76.5 ± 7.5	120 ± 18.6	>100	–
CC(C)COC[C@@H](C)[C@H]1CC[C@H]2[C@@H](OC(=O)c3ccc(F)cc3)CCC[C@]12C [Compound 3f]	45.4 ± 3.1	46.5 ± 3.4	>100	–
C[C@H](COCC(C)(C)O)[C@H]1CC[C@H]2[C@@H](OC(=O)c3ccccc3)CCC[C@]12C [Compound 4a]	43.8 ± 3.6	94.6 ± 12.7	>100	–
CC(C)COC[C@@H](C)[C@H]1CC[C@H]2[C@@H](OC(=O)c3ccccc3)CCC[C@]12C [Compound 3a]	56.8 ± 3.5	35.7 ± 2.6	>100	–
COc1cccc(C(=O)O[C@H]2CCC[C@]3(C)[C@@H]([C@H](C)COCC(C)C)CC[C@@H]23)c1 [Compound 3d]	102 ± 8.4	13.5 ± 1.1	>100	–

— publication PMC11855207, “Synthesis and Evaluation of Aromatic A-Ring 23-Oxavitamin D3 Analogues as Hedgehog Pathway Inhibitors” (International Journal of Molecular Sciences, 2025)
